Results as given in US12594255B2, “Lipids with odd number of carbon atoms and their use as pharmaceutical composition or nutritional supplement” (SunRegen Healthcare AG, priority 2016, dated 2026).
Like-named read-outs stand apart in the source and are kept apart here.

Tests used:
Type in all cases: cell-based
[1] = test system: mouse primary cortical neurons challenged with Aβ1-42 oligomers (AβO); assay: AβO-induced neurotoxicity, 48-h pre-incubation with test item, MTT assay; settings: 48 h pre-incubation, then 1 μM AβO 24 h
Method: Mouse primary cortical neurons were pre-incubated for 48 h with vehicle, 0.05 μM DHA (used as positive control) or different concentrations of Compound C. Then, cortical neurons were treated for 24 h with vehicle (FIG. 1 left) or 1 μM AβO ([…]) and cell viability was determined using the MTT assay (n=3 determinations per condition, 1 independent experiment), Data are represented as % of vehicle control (Mean*SD). […]
(§1) Cortical neurons from embryonic day 16-17 are prepared from C57BL6/J mouse fetuses. In brief, dissociated cortical cells were plated (50.000 cells/well) in 48-well plates pre-coated with 1.5 μg/mL polyornithine (Sigma). Cells were cultured in a chemically defined Dulbecco's modified eagle's/F12 medium free of serum and supplemented with hormones, proteins and salts. Cultures were kept at 35° C. in a humidified 6% CO2 atmosphere. Mouse cortical neurons were exposed for 24 h to 1.0 μM AβO after a 48-h pre-incubation with vehicle or different concentrations of Compound C. The AβO-induced neurotoxicity was evaluated using the MTT assay.
All treatments were done in triplicates in 48-well plates. Cells were incubated with vehicle or 1 μM AβO in the absence or presence of different lipids at the indicated final concentrations) added at 48 hours before ADO. Cells were incubated with AβO for 24 h in a final volume of 140 μL per well.
For positive controls, cells are treated similarly (48 hours before AβO) in the presence of 0.05 μM DHA.
Following AβO-treatment, cell viability was measured using the MTT assay. Briefly, cells were incubated at 35° C. for 1 h with MTT (Sigma, Cat #M2128-10G. Lot #MKBH7489V). For that purpose, 14 μL of 5 mg/mL MITT (solubilized in PBS) were added in each well. After incubation, medium was removed and cells were lyzed with 150 μL DMSO for 10 minutes and protected from light. After complete solubilization of formazan, absorbance at 570 nm was recorded.
as §1, with “cells are” for “cells were”, “Cells are” for “Cells were”, “Cultures are” for “Cultures were”, “of herb B extracts.” for “of Compound C.”, “assay. […]” for “assay.”

[2] = test system: human iPSC-derived neurons challenged with Aβ1-42 oligomers (AβO); assay: AβO-induced neuronal death in human iPSC-derived neurons, NSE ELISA assay; settings: 10000 nM; for viability at 10 µM: Homo sapiens, Neuron, read-out: cell viability
Method: iPSCs were treated at 0 h (T0) with vehicle or 1 μM AβO. Different concentrations of Compound C or 0.1 μM HNG (used as positive control) were added concomitantly to AβO at 0 h (T0), 3 h (T3) or 6 h (T6) after AβO. Then, were incubated for 24 h and cell viability was determined using the NSE ELISA assay (n=6 determinations per condition, 1 independent experiment), Data are represented as % of vehicle control (Mean±SD). […]
To determine whether compound C might rescue neuronal death in human iPSC-derived neurons challenged with Aβ1-42 oligomers (AβO). In this cellular model, AβO induce a dramatic neuronal death that could be monitored by the level of neuronal specific enolase (NSE) using a specific ELISA assay. Compound C will be added at different time points (concomitantly and after AMBO) with the aim to identify rescuing effects.
Cells (HIP-Neuronal progenitors, GlobalStem, Cat #GSC-4312, Lot #20010260) are plated in 96-well plates at a density of 60.000 cells per well and culture. Before experiments, cells are matured for five weeks and kept at 37° C. in a humidified 5% CO2 atmosphere.
Cells are incubated with vehicle or 1 μM AβO in the absence or presence of different concentrations (i.e. 10, 100, 1000 and 10000 nM) of Compound C added concomitantly to AβO (T0), 3 h after AβO (T3), or 6 h after AβO (T6). Cells are incubated for 24 h in a final volume of 100 μL per well. For positive control, cells are treated similarly in the presence of 0.1 μM HNG (i.e. S14G variant of humanin peptide). In addition, neuronal loss is monitored using the detection of neuronal specific enolase (NSE) by ELISA assay according to supplier's recommendations (CloneCloud, Cat #SEA537Hu). A total of three data points per experimental condition will be generated here. […]

[3] = test system: mouse primary cortical neurons challenged with different types toxins; settings: T3
[4] = test system: mouse primary cortical neurons challenged with camptothecin; assay: Camptothecin-induced neuronal death, test item added 48 hours before camptothecin; settings: for neuroprotective and anti-apoptotic effects: 48 h before 1 μM camptothecin; for cell viability: 48 h before 1 μM camptothecin 24 h
Method: (§2) Mouse primary neurons were incubated with vehicle or toxins in the absence or presence of different concentrations of compound C added 48 hours before toxin's challenge. After the addition of toxins, cells were further incubated for 24 h.
as §2, with “Herb B” for “compound C”, “camptothecin's” for “toxin's”, “Camptothecin,” for “toxins,”, “h. Data are represented as % of vehicle control (Mean±SD).” for “h.”
The neuro-protective effects of different concentrations of compound C was investigated using mouse primary cortical neurons challenged with camptothecin, which is a cytotoxic quinoline alkaloid which inhibits the DNA enzyme topoisomerase I (topo I).
(§3) Mouse primary neurons were incubated with vehicle or toxins in the absence or presence of different concentrations of compound C added 48 hours before toxin's challenge. After the addition of 1 μM camptothecin, cells were further incubated for 24 h in a final volume of 140 μL per well.
as §3, with “Cells” for “Mouse primary neurons”, “toxins (at the indicated final concentrations described in plate-layout below)” for “toxins”

## CCCCCCCCCCCCCCC(=O)OCC(COC(=O)CCCCCCCCCCCCCC)OC(=O)CCCCCCCCCCCCCC [Compound C, tripentadecanoin]
[1]; Compound C 320 nM
  maximal neuroprotective effect: 100%
[1]; Mus musculus, Primary cortical neuron, expected around, read-out: EC50 effect (neuroprotection)
  EC50: ~66 nM
[1]; Mus musculus, Primary cortical neuron, Compound C 320 nM, read-out: cell viability
  viability at 0.32 µM: 112 ± 1.5%
[2]; T0
  % of neuroprotection and anti-apoptotic effects: 53.7%
  viability at 10 µM: 76.7 ± 2.7%
[2]; T3
  % of neuroprotection and anti-apoptotic effects: 90.8%
  viability at 10 µM: 94.2 ± 7.1%
[2]; T6
  % of neuroprotection and anti-apoptotic effects: 78.9%
  viability at 10 µM: 88.8 ± 1.3%
[3]; Aβ1-42 fibrils, 10000 nM
  anti-apoptotic and neuroprotective effects: 223%
[3]; Aβ25-35 fibrils, 10000 nM
  anti-apoptotic and neuroprotective effects: 32.1%
[3]; alpha-synuclein fibrils, 1000 nM
  anti-apoptotic and neuroprotective effects: 34.0%
[3]; human alpha-synuclein oligomer-induced toxicity, 10000 nM
  anti-apoptotic and neuroprotective effects: 45.8%
[3]; human amylin fibrils, 1000 nM
  anti-apoptotic and neuroprotective effects: 45.3%
[3]; human amylin fibrils, 10000 nM
  anti-apoptotic and neuroprotective effects: 52.6%
[3]; human amylin oligomers, 1000 nM
  anti-apoptotic and neuroprotective effects: 30.8%
[3]; human amylin oligomers, 10000 nM
  anti-apoptotic and neuroprotective effects: 37.3%
[3]; human tau oligomer-induced toxicity, 10000 nM
  anti-apoptotic and neuroprotective effects: 46.8%
[3]; tau fibril-induced toxicity, 10000 nM
  anti-apoptotic and neuroprotective effects: 23.1%
[4]; 10 nM
  neuroprotective and anti-apoptotic effects: 37.3%
  cell viability: 73.5±1.5 % of control
[4]; 100 nM
  neuroprotective and anti-apoptotic effects: 37.2%
  cell viability: 73.4±5.9 % of control
